Measurements from patent publication US20120190868A1, “SUBSTITUTED BENZOCHALCOGENOACENE COMPOUND, THIN FILM COMPRISING THE COMPOUND, AND ORGANIC SEMICONDUCTOR DEVICE INCLUDING THE THIN FILM” (NATIONAL UNIVERSITY CORPORATION NAGOYA UNIVERSITY, priority 2009, published 2012).

Assay: Solubility of the compound in a solvent (preparation of solution composition)
Assay type: physicochemical
Protocol: The solution composition containing the compound [5] in 0.5 wt % concentration was prepared by dissolving the compound [5] manufactured in Example 1 in tetrahydrofuran.
On the substrate obtained by a similar procedure to Example 8, a 0.5 wt % dichlorobenzene solution of the compound [14] heated at 100° C. was applied by the spin coating method and dried on a hot plate of 120° C. for 30 minutes to result in the formation of a thin film containing the compound and having a thickness of about 30 nm.

| concentration of solution composition prepared by dissolving the compound (solubility in a solvent) (tetrahydrofuran) | concentration of solution of the compound (solubility in a solvent) (dichlorobenzene, heated at 100° C.) | SMILES |
| --- | --- | --- |
| 0.5 wt % | – | CCCCCCc1ccc2c(c1)sc1c2sc2c3ccc(CCCCCC)cc3sc21 [[5]] |
| – | 0.5 wt % | CCCCCCCCCCCCc1ccc2c(c1)sc1c2sc2c3ccc(CCCCCCCCCCCC)cc3sc21 [[14]] |
